Biological target: bovine cardiac myofibrils (full-length cardiac myosin ATPase in the native sarcomere) (Bos taurus (Bovine), UniProt Q9BE39)
Assay: Skinned bovine cardiac myofibril ATPase assay (PK/LDH-coupled)
Assay type: biochemical
Conditions: Ca2+ activating to 75% of maximal rate; for CDMF75 IC15: concentration giving 15% inhibition; for IC50: read-out: CDMF75 IC50
Summary of the method: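 Inhibition of steady-state ATPase read at 340 nm through a PK/LDH-coupled NADH system (0.5 mM NADH, 1.5 mM PEP). Detergent-skinned bovine cardiac myofibrils, 1 mg/mL, were tested at pH 6.8 in PIPES/MgCl2 with 50 μM ATP and calcium adjusted to give pCa50 or pCa75 activation.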

bovine cardiac myofibrils (full-length cardiac myosin ATPase in the native sarcomere), sequence (Q9BE39 whole entry): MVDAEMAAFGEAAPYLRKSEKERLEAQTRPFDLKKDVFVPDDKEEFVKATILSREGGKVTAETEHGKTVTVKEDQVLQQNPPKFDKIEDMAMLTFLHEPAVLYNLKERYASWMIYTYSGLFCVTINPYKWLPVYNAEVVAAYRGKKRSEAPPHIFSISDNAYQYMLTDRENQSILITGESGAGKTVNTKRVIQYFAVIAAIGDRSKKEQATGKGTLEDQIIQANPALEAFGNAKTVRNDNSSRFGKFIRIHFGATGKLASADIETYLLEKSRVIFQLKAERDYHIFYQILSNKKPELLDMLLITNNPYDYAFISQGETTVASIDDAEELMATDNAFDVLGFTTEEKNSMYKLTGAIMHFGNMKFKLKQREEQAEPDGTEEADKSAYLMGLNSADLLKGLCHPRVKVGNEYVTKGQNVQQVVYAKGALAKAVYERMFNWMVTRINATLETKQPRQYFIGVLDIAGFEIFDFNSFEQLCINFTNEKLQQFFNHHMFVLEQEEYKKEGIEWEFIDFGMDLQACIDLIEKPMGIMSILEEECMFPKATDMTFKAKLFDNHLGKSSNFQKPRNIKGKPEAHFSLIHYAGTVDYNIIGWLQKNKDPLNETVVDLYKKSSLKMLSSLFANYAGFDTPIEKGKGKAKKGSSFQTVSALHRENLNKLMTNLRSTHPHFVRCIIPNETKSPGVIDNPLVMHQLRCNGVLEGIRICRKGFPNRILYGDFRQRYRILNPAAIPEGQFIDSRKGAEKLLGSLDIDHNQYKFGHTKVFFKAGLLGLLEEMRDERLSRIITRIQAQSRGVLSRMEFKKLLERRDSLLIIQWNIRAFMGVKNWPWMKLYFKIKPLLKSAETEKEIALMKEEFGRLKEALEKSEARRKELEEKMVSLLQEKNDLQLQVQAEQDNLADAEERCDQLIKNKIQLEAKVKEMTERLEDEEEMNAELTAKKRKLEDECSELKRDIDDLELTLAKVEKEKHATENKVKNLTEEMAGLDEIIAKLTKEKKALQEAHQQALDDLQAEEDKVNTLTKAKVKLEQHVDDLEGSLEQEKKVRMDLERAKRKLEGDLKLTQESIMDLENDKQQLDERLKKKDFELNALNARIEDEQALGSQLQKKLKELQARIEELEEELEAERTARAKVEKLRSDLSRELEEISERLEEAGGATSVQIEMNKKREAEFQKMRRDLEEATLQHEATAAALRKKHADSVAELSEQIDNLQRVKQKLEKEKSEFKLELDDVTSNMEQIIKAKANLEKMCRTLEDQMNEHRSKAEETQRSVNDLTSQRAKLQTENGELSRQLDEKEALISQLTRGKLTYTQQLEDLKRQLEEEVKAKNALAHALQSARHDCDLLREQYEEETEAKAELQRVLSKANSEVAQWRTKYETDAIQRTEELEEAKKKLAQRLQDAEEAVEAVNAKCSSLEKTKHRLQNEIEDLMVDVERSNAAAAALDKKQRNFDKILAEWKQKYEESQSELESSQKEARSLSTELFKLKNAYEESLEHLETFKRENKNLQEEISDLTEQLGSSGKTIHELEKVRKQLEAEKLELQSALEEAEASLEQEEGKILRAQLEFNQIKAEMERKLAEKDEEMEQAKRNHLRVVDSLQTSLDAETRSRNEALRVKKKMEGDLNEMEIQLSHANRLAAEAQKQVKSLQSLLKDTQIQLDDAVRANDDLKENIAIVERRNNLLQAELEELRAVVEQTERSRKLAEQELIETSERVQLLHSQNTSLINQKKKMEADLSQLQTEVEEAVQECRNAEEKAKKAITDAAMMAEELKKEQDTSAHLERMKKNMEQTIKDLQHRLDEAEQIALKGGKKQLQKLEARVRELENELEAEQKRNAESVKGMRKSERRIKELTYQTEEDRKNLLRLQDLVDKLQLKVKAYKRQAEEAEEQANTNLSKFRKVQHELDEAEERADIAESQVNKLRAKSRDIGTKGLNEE
bovine cardiac myofibrils (full-length cardiac myosin ATPase in the native sarcomere), sequence (P85100 whole entry partner): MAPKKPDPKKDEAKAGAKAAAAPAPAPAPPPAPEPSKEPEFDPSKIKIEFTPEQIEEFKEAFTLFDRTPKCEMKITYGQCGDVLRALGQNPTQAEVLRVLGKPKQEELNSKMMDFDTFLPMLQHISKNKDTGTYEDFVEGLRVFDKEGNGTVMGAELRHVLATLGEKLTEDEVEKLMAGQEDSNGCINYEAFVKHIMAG
bovine cardiac myofibrils (full-length cardiac myosin ATPase in the native sarcomere), sequence (Q3SZE5 whole entry partner): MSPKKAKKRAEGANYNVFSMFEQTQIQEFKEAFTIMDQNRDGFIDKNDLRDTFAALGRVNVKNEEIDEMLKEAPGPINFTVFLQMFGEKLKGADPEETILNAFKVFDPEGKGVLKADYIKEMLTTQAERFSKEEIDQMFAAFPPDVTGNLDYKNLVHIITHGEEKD

Compound	CDMF75 IC15 [µM]	IC50 [µM]
Cc1nc(-c2ccc3c(c2)OC[C@H]3NC(=O)c2cnn(C)c2C)no1 [Compound 163, (S)-1,5-dimethyl-N-(6-(5-methyl-1,2,4-oxadiazol-3-yl)-2,3-dihydrobenzofuran-3-yl)-1H-pyrazole-4-carboxamide]	0.8	3.1
Cn1cnnc1C(=O)N[C@@H]1CCc2cc(-c3noc(C(F)F)n3)ccc21 [Compound 165, (R)-N-(5-(5-(difluoromethyl)-1,2,4-oxadiazol-3-yl)-2,3-dihydro-1H-inden-1-yl)-4-methyl-4H-1,2,4-triazole-3-carboxamide]	4.6	23.5
Cc1nc(-c2ccc3c(c2)OCC3NC(=O)c2cnc(C)o2)no1 (stereo not shown) [Compound 166, 2-methyl-N-(6-(5-methyl-1,2,4-oxadiazol-3-yl)-2,3-dihydrobenzofuran-3-yl)oxazole-5-carboxamide]	2.0	7
Cc1nc(-c2ccc3c(c2)OC[C@H]3NC(=O)c2cnc(C)o2)no1 [Compound 167, (S)-2-methyl-N-(6-(5-methyl-1,2,4-oxadiazol-3-yl)-2,3-dihydrobenzofuran-3-yl)oxazole-5-carboxamide]	1.0	3.8
Cc1cc(C(=O)NC2CCc3cc(-c4cc(C(F)F)on4)ccc32)ccn1 (stereo not shown) [Compound 168, N-(5-(5-(difluoromethyl)isoxazol-3-yl)-2,3-dihydro-1H-inden-1-yl)-2-methylisonicotinamide]	1.1	3.8
Cc1cc(C(=O)N[C@@H]2CCc3cc(-c4cc(C(F)F)no4)ccc32)ccn1 [Compound 171, (R)-N-(5-(3-(difluoromethyl)isoxazol-5-yl)-2,3-dihydro-1H-inden-1-yl)-2-methylisonicotinamide]	1.7	6.9
Cc1cc(C(=O)NC2CCc3cc(-c4nc(C)co4)ccc32)ccn1 (stereo not shown) [Compound 173, 2-methyl-N-(5-(4-methyloxazol-2-yl)-2,3-dihydro-1H-inden-1-yl)isonicotinamide]	39.2	> 39.2
COCc1nc(-c2ccc3c(c2)CC[C@H]3NC(=O)c2ccnc(C)c2)no1 [Compound 176, (R)-N-(5-(5-(methoxymethyl)-1,2,4-oxadiazol-3-yl)-2,3-dihydro-1H-inden-1-yl)-2-methylisonicotinamide]	1.2	4.5
COCc1nc(-c2ccc3c(c2)CC[C@H]3NC(=O)c2cnn(C)c2)no1 [Compound 178, (R)-N-(5-(5-(methoxymethyl)-1,2,4-oxadiazol-3-yl)-2,3-dihydro-1H-inden-1-yl)-1-methyl-1H-pyrazole-4-carboxamide]	1.9	6.8
COCc1nc(-c2ccc3c(c2)CC[C@H]3NC(=O)c2cnn(C)c2C)no1 [Compound 181, (R)-N-(5-(5-(methoxymethyl)-1,2,4-oxadiazol-3-yl)-2,3-dihydro-1H-inden-1-yl)-1,5-dimethyl-1H-pyrazole-4-carboxamide]	1.1	4
COCc1nc(-c2ccc3c(c2)CC[C@H]3NC(=O)c2cn(C)nc2C)no1 [Compound 182, (R)-N-(5-(5-(methoxymethyl)-1,2,4-oxadiazol-3-yl)-2,3-dihydro-1H-inden-1-yl)-1,3-dimethyl-1H-pyrazole-4-carboxamide]	1.0	4.1
Cn1cc(C(=O)N[C@@H]2CCc3cc(-c4noc(C5CC5)n4)ccc32)cn1 [Compound 185, (R)-N-(5-(5-cyclopropyl-1,2,4-oxadiazol-3-yl)-2,3-dihydro-1H-inden-1-yl)-1-methyl-1H-pyrazole-4-carboxamide]	0.8	2.7
Cc1cc(C(=O)NC2COc3cc(-c4noc(C)n4)cnc32)ccn1 (stereo not shown) [Compound 187, 2-methyl-N-(6-(5-methyl-1,2,4-oxadiazol-3-yl)-2,3-dihydrofuro[3,2-b]pyridin-3-yl)isonicotinamide]	11.5	> 39.2
Cc1cc(C(=O)N[C@@H]2COc3cc(-c4noc(C)n4)cnc32)ccn1 [Compound 188, (S)-2-methyl-N-(6-(5-methyl-1,2,4-oxadiazol-3-yl)-2,3-dihydrofuro[3,2-b]pyridin-3-yl)isonicotinamide]	5.3	23.6
Cn1nnnc1C(=O)N[C@@H]1CCc2cc(-c3noc(C(F)F)n3)ccc21 [Compound 189, (R)-N-(5-(5-(difluoromethyl)-1,2,4-oxadiazol-3-yl)-2,3-dihydro-1H-inden-1-yl)-1-methyl-1H-tetrazole-5-carboxamide]	1.4	5.1
Cc1cc(C(=O)NC2COc3cc(-c4noc(C(F)F)n4)ccc32)n(C)n1 (stereo not shown) [Compound 190, N-(6-(5-(difluoromethyl)-1,2,4-oxadiazol-3-yl)-2,3-dihydrobenzofuran-3-yl)-1,3-dimethyl-1H-pyrazole-5-carboxamide]	0.6	2
Cc1cc(C(=O)N[C@@H]2COc3cc(-c4noc(C(F)F)n4)ccc32)n(C)n1 [Compound 191, (S)-N-(6-(5-(difluoromethyl)-1,2,4-oxadiazol-3-yl)-2,3-dihydrobenzofuran-3-yl)-1,3-dimethyl-1H-pyrazole-5-carboxamide]	0.3	0.9

Now from value to molecule:

CDMF75 IC15 [µM]	IC50 [µM]	Compound
1.4	5.9	Cc1nc(-c2ccc3c(c2)OCC3NC(=O)c2cn(C)nc2C)no1 (stereo not shown) [Compound 157, 1,3-dimethyl-N-(6-(5-methyl-1,2,4-oxadiazol-3-yl)-2,3-dihydrobenzofuran-3-yl)-1H-pyrazole-4-carboxamide]
1.9	8.4	Cc1nc(-c2ccc3c(c2)OCC3NC(=O)c2oc(C)nc2C)no1 (stereo not shown) [Compound 159, 2,4-dimethyl-N-(6-(5-methyl-1,2,4-oxadiazol-3-yl)-2,3-dihydrobenzofuran-3-yl)oxazole-5-carboxamide]
6.5	31.3	Cc1nc(-c2ccc3c(c2)OC[C@@H]3NC(=O)c2oc(C)nc2C)no1 [Compound 160, (R)-2,4-dimethyl-N-(6-(5-methyl-1,2,4-oxadiazol-3-yl)-2,3-dihydrobenzofuran-3-yl)oxazole-5-carboxamide]
1.1	4.4	Cc1nc(-c2ccc3c(c2)OC[C@H]3NC(=O)c2oc(C)nc2C)no1 [Compound 161, (S)-2,4-dimethyl-N-(6-(5-methyl-1,2,4-oxadiazol-3-yl)-2,3-dihydrobenzofuran-3-yl)oxazole-5-carboxamide]
1.6	6.4	Cc1nc(-c2ccc3c(c2)OCC3NC(=O)c2cnn(C)c2C)no1 (stereo not shown) [Compound 162, 1,5-dimethyl-N-(6-(5-methyl-1,2,4-oxadiazol-3-yl)-2,3-dihydrobenzofuran-3-yl)-1H-pyrazole-4-carboxamide]
8.2	> 39.2	Cc1nc(-c2ccc3c(c2)CC[C@H]3NC(=O)c2nncn2C)no1 [Compound 164, (R)-4-methyl-N-(5-(5-methyl-1,2,4-oxadiazol-3-yl)-2,3-dihydro-1H-inden-1-yl)-4H-1,2,4-triazole-3-carboxamide]
0.5	1.8	Cc1cc(C(=O)N[C@@H]2CCc3cc(-c4cc(C(F)F)on4)ccc32)ccn1 [Compound 169, (R)-N-(5-(5-(difluoromethyl)isoxazol-3-yl)-2,3-dihydro-1H-inden-1-yl)-2-methylisonicotinamide]
3.8	15.9	Cc1cc(C(=O)NC2CCc3cc(-c4cc(C(F)F)no4)ccc32)ccn1 (stereo not shown) [Compound 170, N-(5-(3-(difluoromethyl)isoxazol-5-yl)-2,3-dihydro-1H-inden-1-yl)-2-methylisonicotinamide]
8.1	> 39.2	Cc1cc(C(=O)N[C@@H]2CCc3cc(-c4nc(C)co4)ccc32)ccn1 [Compound 172, (R)-2-methyl-N-(5-(4-methyloxazol-2-yl)-2,3-dihydro-1H-inden-1-yl)isonicotinamide]
1.1	3.8	Cn1nccc1C(=O)N[C@@H]1CCc2cc(-c3noc(C4CCO4)n3)ccc21 (stereo partly drawn) [Compound 174, 1-methyl-N-((1R)-5-(5-(oxetan-2-yl)-1,2,4-oxadiazol-3-yl)-2,3-dihydro-1H-inden-1-yl)-1H-pyrazole-5-carboxamide]
0.4	1.4	COCc1nc(-c2ccc3c(c2)CC[C@H]3NC(=O)c2ccnn2C)no1 [Compound 175, (R)-N-(5-(5-(methoxymethyl)-1,2,4-oxadiazol-3-yl)-2,3-dihydro-1H-inden-1-yl)-1-methyl-1H-pyrazole-5-carboxamide]
0.5	1.8	COCc1nc(-c2ccc3c(c2)CC[C@H]3NC(=O)c2ocnc2C)no1 [Compound 177, (R)-N-(5-(5-(methoxymethyl)-1,2,4-oxadiazol-3-yl)-2,3-dihydro-1H-inden-1-yl)-4-methyloxazole-5-carboxamide]
0.7	2.2	COCc1nc(-c2ccc3c(c2)CC[C@H]3NC(=O)c2cc(C)nn2C)no1 [Compound 179, (R)-N-(5-(5-(methoxymethyl)-1,2,4-oxadiazol-3-yl)-2,3-dihydro-1H-inden-1-yl)-1,3-dimethyl-1H-pyrazole-5-carboxamide]
1.7	5.8	COCc1nc(-c2ccc3c(c2)CC[C@H]3NC(=O)c2oc(C)nc2C)no1 [Compound 180, (R)-N-(5-(5-(methoxymethyl)-1,2,4-oxadiazol-3-yl)-2,3-dihydro-1H-inden-1-yl)-2,4-dimethyloxazole-5-carboxamide]
0.7	2.4	Cn1cc(C(=O)N[C@@H]2CCc3cc(-c4noc(C(F)F)n4)ccc32)cn1 [Compound 186, (R)-N-(5-(5-(difluoromethyl)-1,2,4-oxadiazol-3-yl)-2,3-dihydro-1H-inden-1-yl)-1-methyl-1H-pyrazole-4-carboxamide]
